Assays:
Format in all cases: functional
HuP-T4 = experiment: Synergistic cytotoxicity against human HuP-T4 cells expressing KRAS mutant assessed as combination index at ED 50 measured after 72 hrs in presence of MEK inhibitor GSK1120212 by Cell-titer Glo reagent assay
SK-N-FI [1] = experiment: Synergistic cytotoxicity against human SK-N-FI cells assessed as combination index at ED 50 measured after 72 hrs in presence of concurrent treatment of […] inhibitor CI-1040 by Cell-titer Glo reagent assay
NB-1691 [2] = experiment: Synergistic cytotoxicity against human NB-1691 cells assessed as combination index at ED 75 measured after 72 hrs in presence of temozolomide by Cell-titer Glo reagent assay
SW48 = experiment: Synergistic cytotoxicity against human SW48 cells assessed as combination index at ED75 measured after 72 hrs in presence of MEK inhibitor GSK1120212 by Cell-titer Glo reagent assay
NB-1691 [3] = experiment: Synergistic cytotoxicity against human NB-1691 cells assessed as combination index at ED 50 measured after 72 hrs in presence of temozolomide by Cell-titer Glo reagent assay
ASPC1 [4] = experiment: Synergistic cytotoxicity against human ASPC1 cells assessed as combination index at ED 50 measured after 72 hrs in presence of MEK inhibitor GSK1120212 by Cell-titer Glo reagent assay
NCI-H2228 = experiment: Synergistic cytotoxicity against human NCI-H2228 cells assessed as combination index at ED 50 measured after 72 hrs in presence of MEK inhibitor GSK1120212 by Cell-titer Glo reagent assay
HPAF-II = experiment: Synergistic cytotoxicity against human HPAF-II cells expressing KRAS mutant assessed as combination index at ED 50 measured after 72 hrs in presence of MEK inhibitor GSK1120212 by Cell-titer Glo reagent assay
SW900 [5] = experiment: Synergistic cytotoxicity against human SW900 cells expressing KRAS mutant assessed as combination index at ED75 measured after 72 hrs in presence of MEK inhibitor GSK1120212 by Cell-titer Glo reagent assay
NCI-H2030 = experiment: Synergistic cytotoxicity against human NCI-H2030 cells expressing KRAS mutant assessed as combination index at ED 50 measured after 72 hrs in presence of MEK inhibitor GSK1120212 by Cell-titer Glo reagent assay
NCI-H1792 = experiment: Synergistic cytotoxicity against human NCI-H1792 cells expressing KRAS mutant assessed as combination index at ED 50 measured after 72 hrs in presence of MEK inhibitor GSK1120212 by Cell-titer Glo reagent assay
NCI-H2170 = experiment: Synergistic cytotoxicity against human NCI-H2170 cells assessed as combination index at ED 50 measured after 72 hrs in presence of MEK inhibitor GSK1120212 by Cell-titer Glo reagent assay
NCI-H2122 = experiment: Synergistic cytotoxicity against human NCI-H2122 cells expressing KRAS mutant assessed as combination index at ED75 measured after 72 hrs in presence of MEK inhibitor GSK1120212 by Cell-titer Glo reagent assay
RKO = experiment: Synergistic cytotoxicity against human RKO cells expressing BRAF mutant assessed as combination index at ED75 measured after 72 hrs in presence of MEK inhibitor GSK1120212 by Cell-titer Glo reagent assay
NCI-H23 = experiment: Synergistic cytotoxicity against human NCI-H23 cells assessed as combination index at ED 50 measured after 72 hrs in presence of MEK inhibitor GSK1120212 by Cell-titer Glo reagent assay
NCI-H358 [6] = experiment: Synergistic cytotoxicity against human NCI-H358 cells expressing KRAS mutant assessed as combination index at ED75 measured after 72 hrs in presence of MEK inhibitor GSK1120212 by Cell-titer Glo reagent assay
NB-1691 [7] = experiment: Synergistic cytotoxicity against human NB-1691 cells assessed as combination index at ED 75 measured after 72 hrs in presence of SN-38 by Cell-titer Glo reagent assay
NCI-H1299 = experiment: Synergistic cytotoxicity against human NCI-H1299 cells expressing NRAS mutant assessed as combination index at ED75 measured after 72 hrs in presence of MEK inhibitor GSK1120212 by Cell-titer Glo reagent assay
NCI-H460 = experiment: Synergistic cytotoxicity against human NCI-H460 cells expressing KRAS mutant assessed as combination index at ED 50 measured after 72 hrs in presence of MEK inhibitor GSK1120212 by Cell-titer Glo reagent assay
NB-1691 [8] = experiment: Synergistic cytotoxicity against human NB-1691 cells assessed as combination index at ED 75 measured after 72 hrs in presence of concurrent treatment of […] inhibitor CI-1040 by Cell-titer Glo reagent assay
ASPC1 [9] = experiment: Synergistic cytotoxicity against human ASPC1 cells expressing KRAS mutant assessed as combination index at ED75 measured after 72 hrs in presence of MEK inhibitor GSK1120212 by Cell-titer Glo reagent assay
SW1990 = experiment: Synergistic cytotoxicity against human SW1990 cells expressing KRAS mutant assessed as combination index at ED 50 measured after 72 hrs in presence of MEK inhibitor GSK1120212 by Cell-titer Glo reagent assay
NCI-H358 [10] = experiment: Synergistic cytotoxicity against human NCI-H358 cells expressing KRAS mutant assessed as combination index at ED 50 measured after 72 hrs in presence of MEK inhibitor GSK1120212 by Cell-titer Glo reagent assay
Calu-6 = experiment: Synergistic cytotoxicity against human Calu-6 cells expressing KRAS mutant assessed as combination index at ED 50 measured after 72 hrs in presence of MEK inhibitor GSK1120212 by Cell-titer Glo reagent assay
HCT-116 = experiment: Synergistic cytotoxicity against human HCT-116 cells expressing KRAS mutant assessed as combination index at ED75 measured after 72 hrs in presence of MEK inhibitor GSK1120212 by Cell-titer Glo reagent assay
[11] = Synergistic cytotoxicity against human NB-1771 cells assessed as combination index at ED 75 measured after 72 hrs in presence of concurrent treatment of […] inhibitor CI-1040 by Cell-titer Glo reagent assay
SW900 [12] = experiment: Synergistic cytotoxicity against human SW900 cells expressing KRAS mutant assessed as combination index at ED 50 measured after 72 hrs in presence of MEK inhibitor GSK1120212 by Cell-titer Glo reagent assay
SK-N-FI [13] = experiment: Synergistic cytotoxicity against human SK-N-FI cells assessed as combination index at ED 50 measured after 72 hrs in presence of temozolomide by Cell-titer Glo reagent assay
YAPC = experiment: Synergistic cytotoxicity against human […] cells expressing KRAS mutant assessed as combination index at ED 50 measured after 72 hrs in presence of MEK inhibitor GSK1120212 by Cell-titer Glo reagent assay
SK-N-FI [14] = experiment: Synergistic cytotoxicity against human SK-N-FI cells assessed as combination index at ED 75 measured after 72 hrs in presence of temozolomide by Cell-titer Glo reagent assay

Compound: CC(C)Oc1ccc(C(=O)N[C@H](CNC(=O)CN(C)C)Cc2ccc(-c3cn4cccc([C@H](C)O)c4n3)cc2)cc1Cl [GSK-923295A]
- CI (HuP-T4): 0.452
- CI (SK-N-FI [1]): 0.643
- CI (NB-1691 [2]): 0.241
- CI (SW48): 0.091
- CI (NB-1691 [3]): 0.405
- CI (ASPC1 [4]): 0.566
- CI (NCI-H2228): 0.317
- CI (HPAF-II): 0.567
- CI (SW900 [5]): 0.653
- CI (NCI-H2030): 0.308
- CI (NCI-H1792): 0.484
- CI (NCI-H2170): 0.37
- CI (NCI-H2122): 0.796
- CI (RKO): 0.206
- CI (NCI-H23): 0.259
- CI (NCI-H358 [6]): 0.467
- CI (NB-1691 [7]): 0.886
- CI (NCI-H1299): 0.511
- CI (NCI-H460): 0.25
- CI (NB-1691 [8]): 0.308
- CI (ASPC1 [9]): 0.323
- CI (SW1990): 0.176
- CI (NCI-H358 [10]): 0.416
- CI (Calu-6): 0.556
- CI (HCT-116): 0.384
- CI [11]: 0.118
- CI (SW900 [12]): 0.705
- CI (SK-N-FI [13]): 0.837
- CI (YAPC): 0.659
- CI (SK-N-FI [14]): 0.94
